# ChEMBL document CHEMBL4673241, “Cannabitwinol, a Dimeric Phytocannabinoid from Hemp, Cannabis sativa L., Is a Selective Thermo-TRP Modulator” (J Nat Prod, 2020)
# Key:
# Type in all cases: cell-based
# [1] = biological target: Transient receptor potential cation channel subfamily V member 4 (Rattus norvegicus) (UniProt Q9ERZ8); experiment: Agonist activity at rat TRPV4 stably transfected in HEK293 cells assessed as increase in calcium influx by Fluo-4-AM dye based spectrofluorimetric method relative to ionomycin
# Sequence of Transient receptor potential cation channel subfamily V member 4 (Rattus norvegicus) (Q9ERZ8 whole entry): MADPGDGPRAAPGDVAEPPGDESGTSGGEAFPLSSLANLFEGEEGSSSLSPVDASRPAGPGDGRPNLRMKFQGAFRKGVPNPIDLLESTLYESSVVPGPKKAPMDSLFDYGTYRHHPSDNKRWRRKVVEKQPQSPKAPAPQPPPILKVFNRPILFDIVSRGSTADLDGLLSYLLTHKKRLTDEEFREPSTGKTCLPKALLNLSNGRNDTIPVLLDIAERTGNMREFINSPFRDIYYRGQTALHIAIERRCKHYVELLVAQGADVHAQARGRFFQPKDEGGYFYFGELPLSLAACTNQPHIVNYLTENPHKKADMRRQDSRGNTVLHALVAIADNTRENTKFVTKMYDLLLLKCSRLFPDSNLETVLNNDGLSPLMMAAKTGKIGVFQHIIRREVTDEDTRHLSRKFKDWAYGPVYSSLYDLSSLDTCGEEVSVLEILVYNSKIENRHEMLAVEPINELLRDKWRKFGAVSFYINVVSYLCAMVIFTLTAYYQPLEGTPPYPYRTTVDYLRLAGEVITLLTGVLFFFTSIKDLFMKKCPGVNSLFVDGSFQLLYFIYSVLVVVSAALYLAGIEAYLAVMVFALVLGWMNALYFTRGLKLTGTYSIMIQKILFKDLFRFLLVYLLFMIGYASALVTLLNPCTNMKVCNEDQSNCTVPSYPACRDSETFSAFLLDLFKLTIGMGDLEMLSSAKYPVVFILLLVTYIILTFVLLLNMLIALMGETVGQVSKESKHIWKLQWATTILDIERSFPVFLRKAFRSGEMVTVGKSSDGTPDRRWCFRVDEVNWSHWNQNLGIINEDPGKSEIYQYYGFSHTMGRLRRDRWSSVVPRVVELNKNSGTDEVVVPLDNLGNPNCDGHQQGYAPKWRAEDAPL
# [2] = biological target: T1, Transient receptor potential cation channel subfamily V member 4 (Rattus norvegicus, UniProt Q9ERZ8); experiment: Antagonist activity at rat TRPV4 expressed in HEK293 cells assessed as inhibition of GSK1016790A-induced Ca2+ response preincubated for 5 mins followed by GSK1016790A addition by Fluo-4AM dye based fluorescence assay
# T1 sequence (Q9ERZ8 whole entry): as above
# [3] = biological target: T2, Transient receptor potential cation channel subfamily V member 2 (Rattus norvegicus) (UniProt Q9WUD2); experiment: Agonist activity at rat TRPV2 stably transfected in HEK293 cells assessed as increase in calcium influx by Fluo-4-AM dye based spectrofluorimetric method relative to ionomycin
# T2 sequence (whole entry): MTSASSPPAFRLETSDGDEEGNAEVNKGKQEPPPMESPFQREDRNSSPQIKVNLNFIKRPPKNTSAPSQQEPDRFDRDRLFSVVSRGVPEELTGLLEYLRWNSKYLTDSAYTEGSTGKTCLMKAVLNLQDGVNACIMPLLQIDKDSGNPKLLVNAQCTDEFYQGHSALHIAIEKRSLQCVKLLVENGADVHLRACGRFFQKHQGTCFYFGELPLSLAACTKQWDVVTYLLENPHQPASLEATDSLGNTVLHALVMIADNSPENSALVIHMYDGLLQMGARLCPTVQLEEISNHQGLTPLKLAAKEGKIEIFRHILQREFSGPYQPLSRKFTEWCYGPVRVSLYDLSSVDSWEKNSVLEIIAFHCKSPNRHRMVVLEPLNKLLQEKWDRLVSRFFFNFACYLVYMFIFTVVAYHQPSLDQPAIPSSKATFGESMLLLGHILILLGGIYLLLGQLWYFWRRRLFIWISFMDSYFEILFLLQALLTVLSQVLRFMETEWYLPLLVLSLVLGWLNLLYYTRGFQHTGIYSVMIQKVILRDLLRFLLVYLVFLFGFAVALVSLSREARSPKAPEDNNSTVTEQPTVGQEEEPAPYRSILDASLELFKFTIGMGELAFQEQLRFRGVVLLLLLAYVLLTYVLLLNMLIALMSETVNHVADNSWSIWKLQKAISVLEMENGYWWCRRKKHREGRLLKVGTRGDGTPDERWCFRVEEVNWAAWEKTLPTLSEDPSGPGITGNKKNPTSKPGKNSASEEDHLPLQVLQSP
# [4] = biological target: Transient receptor potential cation channel subfamily M member 8 (Rattus norvegicus, UniProt Q8R455); experiment: Antagonist activity at rat TRPM8 expressed in HEK293 cells assessed as inhibition of icilin-induced Ca2+ response preincubated for 5 mins followed by icilin addition by Fluo-4AM dye based fluorescence assay
# Sequence of Transient receptor potential cation channel subfamily M member 8 (Q8R455 whole entry): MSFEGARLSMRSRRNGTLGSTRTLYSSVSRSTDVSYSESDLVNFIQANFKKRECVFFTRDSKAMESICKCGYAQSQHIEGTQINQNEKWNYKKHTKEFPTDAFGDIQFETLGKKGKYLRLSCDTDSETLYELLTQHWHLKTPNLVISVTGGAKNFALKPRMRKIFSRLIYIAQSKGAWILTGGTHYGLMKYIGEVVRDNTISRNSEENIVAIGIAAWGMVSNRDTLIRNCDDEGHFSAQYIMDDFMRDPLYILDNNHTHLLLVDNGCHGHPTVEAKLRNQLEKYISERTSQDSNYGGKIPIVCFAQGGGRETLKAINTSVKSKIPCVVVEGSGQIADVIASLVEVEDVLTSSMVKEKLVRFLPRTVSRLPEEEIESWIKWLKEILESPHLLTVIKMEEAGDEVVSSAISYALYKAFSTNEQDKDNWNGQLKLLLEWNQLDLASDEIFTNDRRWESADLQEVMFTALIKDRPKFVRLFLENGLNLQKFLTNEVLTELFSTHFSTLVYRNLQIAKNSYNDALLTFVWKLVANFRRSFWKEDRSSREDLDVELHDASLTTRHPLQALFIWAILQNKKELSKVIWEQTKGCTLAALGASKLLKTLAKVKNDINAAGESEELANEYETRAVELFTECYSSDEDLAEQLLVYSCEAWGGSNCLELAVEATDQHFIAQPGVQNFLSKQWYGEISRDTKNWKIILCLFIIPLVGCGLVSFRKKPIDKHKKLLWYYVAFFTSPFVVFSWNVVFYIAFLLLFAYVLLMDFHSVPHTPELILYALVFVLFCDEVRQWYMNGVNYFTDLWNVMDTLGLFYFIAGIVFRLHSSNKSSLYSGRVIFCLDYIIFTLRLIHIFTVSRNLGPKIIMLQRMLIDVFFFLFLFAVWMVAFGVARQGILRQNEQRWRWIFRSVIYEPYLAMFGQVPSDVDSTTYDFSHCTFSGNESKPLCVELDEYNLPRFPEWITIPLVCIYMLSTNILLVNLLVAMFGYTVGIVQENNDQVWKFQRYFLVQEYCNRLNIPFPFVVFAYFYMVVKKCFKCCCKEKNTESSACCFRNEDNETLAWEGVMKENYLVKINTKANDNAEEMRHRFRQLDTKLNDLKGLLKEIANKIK
# [5] = biological target: T3, Heat sensitive channel TRPV3 (Rattus norvegicus, UniProt Q4QYD9); experiment: Agonist activity at rat TRPV3 stably transfected in HEK293 cells assessed as increase in calcium influx in presence of ionomycin by Fluo-4-AM dye based spectrofluorimetric method
# T3 sequence (Q4QYD9 whole entry): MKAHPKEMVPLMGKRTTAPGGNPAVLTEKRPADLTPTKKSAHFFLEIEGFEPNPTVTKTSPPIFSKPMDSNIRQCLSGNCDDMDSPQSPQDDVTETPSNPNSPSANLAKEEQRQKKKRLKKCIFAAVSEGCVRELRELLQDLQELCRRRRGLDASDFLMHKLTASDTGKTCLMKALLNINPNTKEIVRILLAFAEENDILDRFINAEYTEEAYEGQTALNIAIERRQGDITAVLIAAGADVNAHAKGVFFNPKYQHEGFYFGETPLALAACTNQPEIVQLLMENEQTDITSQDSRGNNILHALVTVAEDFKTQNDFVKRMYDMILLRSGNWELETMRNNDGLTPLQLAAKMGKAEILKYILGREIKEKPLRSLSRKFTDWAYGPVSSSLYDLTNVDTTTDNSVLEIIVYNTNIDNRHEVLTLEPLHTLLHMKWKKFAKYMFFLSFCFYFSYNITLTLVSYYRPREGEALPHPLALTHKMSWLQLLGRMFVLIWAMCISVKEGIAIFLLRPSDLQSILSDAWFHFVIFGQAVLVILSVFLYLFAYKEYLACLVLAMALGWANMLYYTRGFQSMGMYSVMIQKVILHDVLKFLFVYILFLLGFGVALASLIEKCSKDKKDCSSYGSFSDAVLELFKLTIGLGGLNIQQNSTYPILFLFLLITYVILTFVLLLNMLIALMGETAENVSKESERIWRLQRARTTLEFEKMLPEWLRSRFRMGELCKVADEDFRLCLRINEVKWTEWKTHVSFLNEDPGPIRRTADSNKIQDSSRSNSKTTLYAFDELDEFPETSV
# [6] = biological target: T1, Transient receptor potential cation channel subfamily V member 4; experiment: Agonist activity at rat TRPV4 stably transfected in HEK293 cells assessed as increase in calcium influx in presence of ionomycin by Fluo-4-AM dye based spectrofluorimetric method
# [7] = biological target: Transient receptor potential cation channel subfamily A member 1 (Rattus norvegicus) (UniProt Q6RI86); experiment: Agonist activity at rat TRPA1 stably transfected in HEK293 cells assessed as increase in calcium influx by Fluo-4-AM dye based spectrofluorimetric method relative to allylisothiocyanate; details: filed as agonist
# Sequence of Transient receptor potential cation channel subfamily A member 1 (Rattus norvegicus) (Q6RI86 whole entry): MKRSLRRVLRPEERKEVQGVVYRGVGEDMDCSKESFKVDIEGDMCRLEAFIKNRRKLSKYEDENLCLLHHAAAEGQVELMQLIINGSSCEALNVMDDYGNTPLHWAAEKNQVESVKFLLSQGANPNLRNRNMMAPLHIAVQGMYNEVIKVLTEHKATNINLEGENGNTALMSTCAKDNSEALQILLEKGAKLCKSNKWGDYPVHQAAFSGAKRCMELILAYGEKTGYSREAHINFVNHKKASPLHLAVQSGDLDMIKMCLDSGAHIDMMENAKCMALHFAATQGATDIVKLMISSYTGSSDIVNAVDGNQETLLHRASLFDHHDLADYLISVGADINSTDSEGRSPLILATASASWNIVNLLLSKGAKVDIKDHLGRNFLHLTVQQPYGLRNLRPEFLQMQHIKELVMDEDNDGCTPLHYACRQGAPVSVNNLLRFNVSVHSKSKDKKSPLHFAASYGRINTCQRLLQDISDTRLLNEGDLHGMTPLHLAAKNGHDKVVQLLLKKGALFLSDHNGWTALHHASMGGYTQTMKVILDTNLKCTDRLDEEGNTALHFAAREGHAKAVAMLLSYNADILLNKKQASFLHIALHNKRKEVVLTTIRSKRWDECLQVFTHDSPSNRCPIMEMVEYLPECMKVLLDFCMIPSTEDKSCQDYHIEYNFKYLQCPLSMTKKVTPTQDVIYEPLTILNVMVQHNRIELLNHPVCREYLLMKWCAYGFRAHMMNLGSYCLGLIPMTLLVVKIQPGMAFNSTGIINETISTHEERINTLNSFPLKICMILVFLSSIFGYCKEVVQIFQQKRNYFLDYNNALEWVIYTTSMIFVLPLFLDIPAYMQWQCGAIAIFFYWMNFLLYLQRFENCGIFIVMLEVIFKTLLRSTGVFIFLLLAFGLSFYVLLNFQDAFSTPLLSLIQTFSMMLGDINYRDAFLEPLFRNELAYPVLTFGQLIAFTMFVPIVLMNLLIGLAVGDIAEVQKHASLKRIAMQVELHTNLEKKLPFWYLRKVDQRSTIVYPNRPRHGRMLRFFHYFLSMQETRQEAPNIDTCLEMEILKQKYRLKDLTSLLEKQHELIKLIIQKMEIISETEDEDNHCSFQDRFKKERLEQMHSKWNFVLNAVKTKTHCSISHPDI
# [8] = biological target: T4, Transient receptor potential cation channel subfamily V member 2 (Rattus norvegicus, UniProt Q9WUD2); experiment: Antagonist activity at rat TRPV2 expressed in HEK293 cells assessed as inhibition of LPC-induced Ca2+ response preincubated for 5 mins followed by LPC addition by Fluo-4AM dye based fluorescence assay
# T4 sequence (Q9WUD2 whole entry): T2 sequence (whole entry)
# [9] = biological target: T5, Transient receptor potential cation channel subfamily V member 1 (Homo sapiens, UniProt Q8NER1); experiment: Agonist activity at human TRPV1 stably transfected in HEK293 cells assessed as increase in calcium influx by Fluo-4-AM dye based spectrofluorimetric method relative to ionomycin
# T5 sequence (Q8NER1 whole entry): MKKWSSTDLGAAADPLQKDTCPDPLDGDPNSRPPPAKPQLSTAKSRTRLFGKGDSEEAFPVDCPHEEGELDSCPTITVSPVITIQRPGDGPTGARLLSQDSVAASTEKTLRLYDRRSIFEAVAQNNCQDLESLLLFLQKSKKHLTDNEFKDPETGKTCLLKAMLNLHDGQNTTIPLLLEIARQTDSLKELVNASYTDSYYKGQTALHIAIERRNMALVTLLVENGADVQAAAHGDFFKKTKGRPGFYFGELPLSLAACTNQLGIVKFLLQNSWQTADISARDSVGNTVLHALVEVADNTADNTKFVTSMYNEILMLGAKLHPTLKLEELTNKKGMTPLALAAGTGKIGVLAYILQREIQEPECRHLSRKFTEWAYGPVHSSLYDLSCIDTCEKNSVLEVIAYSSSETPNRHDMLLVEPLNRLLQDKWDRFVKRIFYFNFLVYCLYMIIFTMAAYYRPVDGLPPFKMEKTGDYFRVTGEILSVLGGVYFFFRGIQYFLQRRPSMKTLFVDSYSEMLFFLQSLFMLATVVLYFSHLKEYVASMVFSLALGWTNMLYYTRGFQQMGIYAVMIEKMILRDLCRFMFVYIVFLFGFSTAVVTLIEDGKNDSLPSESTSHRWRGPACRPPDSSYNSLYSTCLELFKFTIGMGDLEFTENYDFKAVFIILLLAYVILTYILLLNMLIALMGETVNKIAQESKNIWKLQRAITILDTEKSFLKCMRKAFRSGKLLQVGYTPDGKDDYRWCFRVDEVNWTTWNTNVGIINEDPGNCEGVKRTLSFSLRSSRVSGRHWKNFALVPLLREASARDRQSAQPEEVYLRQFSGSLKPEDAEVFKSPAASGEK
# [10] = biological target: T6, Transient receptor potential cation channel subfamily A member 1 (Rattus norvegicus, UniProt Q6RI86); experiment: Agonist activity at rat TRPA1 stably transfected in HEK293 cells assessed as increase in calcium influx in presence of allylisothiocyanate by Fluo-4-AM dye based spectrofluorimetric method
# T6 sequence (Q6RI86 whole entry): as the sequence (Q6RI86 whole entry) above
# [11] = biological target: T6, Transient receptor potential cation channel subfamily A member 1; experiment: Antagonist activity at rat TRPA1 expressed in HEK293 cells assessed as inhibition of allylisothiocyanate-induced Ca2+ response preincubated for 5 mins followed by allylisothiocyanate addition by Fluo-4AM dye based fluorescence assay
# [12] = biological target: T5, Transient receptor potential cation channel subfamily V member 1; experiment: Agonist activity at human TRPV1 stably transfected in HEK293 cells assessed as increase in calcium influx in presence of ionomycin by Fluo-4-AM dye based spectrofluorimetric method
# [13] = biological target: T5, Transient receptor potential cation channel subfamily V member 1; experiment: Antagonist activity at human TRPV1 expressed in HEK293 cells assessed as inhibition of capsaicin-induced Ca2+ response preincubated for 5 mins followed by capsaicin addition by Fluo-4AM dye based fluorescence assay
# [14] = biological target: T4, Transient receptor potential cation channel subfamily V member 2; experiment: Agonist activity at rat TRPV2 stably transfected in HEK293 cells assessed as increase in calcium influx in presence of ionomycin by Fluo-4-AM dye based spectrofluorimetric method
# [15] = biological target: T7, Heat sensitive channel TRPV3 (Rattus norvegicus) (UniProt Q4QYD9); experiment: Agonist activity at rat TRPV3 stably transfected in HEK293 cells assessed as increase in calcium influx by Fluo-4-AM dye based spectrofluorimetric method relative to ionomycin; details: filed as agonist
# T7 sequence (whole entry): T3 sequence (Q4QYD9 whole entry)
# [16] = biological target: T3, Heat sensitive channel TRPV3; experiment: Antagonist activity at rat TRPV3 expressed in HEK293 cells assessed as inhibition of thymol-induced Ca2+ response preincubated for 5 mins followed by thymol addition by Fluo-4AM dye based fluorescence assay
SMILES,Efficacy [1] [%],IC50 [2] [µM],Efficacy ([3]; filed as agonist) [%],IC50 [4] [µM],EC50 [5] [µM],EC50 [6] [µM],Efficacy [7] [%],IC50 [8] [µM],Efficacy ([9]; filed as agonist) [%],EC50 [10] [µM],IC50 [11] [µM],EC50 [12] [µM],IC50 [13] [µM],EC50 ([14]; read-out: EC50) [µM],Efficacy [15] [%],IC50 [16] [µM],Efficacy [3] [%],Efficacy [9] [%],EC50 ([14]; hek293)
C=C(C)[C@@H]1CCC(C)=C[C@H]1c1c(O)cc(CCCCC)cc1O [CANNABIDIOL],15.2,5.9,67.5,2.8,0.51,0.9,109,1.1,78.4,0.48,0.45,4.1,3.7,1.2,53.6,0.75,–,–,–
C=C(C)[C@@H]1CCC(C)=C[C@H]1c1c(O)cc(CCCCC)c(Cc2c(CCCCC)cc(O)c([C@@H]3C=C(C)CC[C@H]3C(=C)C)c2O)c1O,10.6,> 20,–,3.9,4.6,6.2,96.7,> 20,–,3,4.9,4.5,> 20,–,66.5,11.8,< 10,12.3,Not Active
